In one experiment the test system is Tomato (breed: Momotaro). Nature of the experiment: Relief effects of high temperature injury on tomato (Test Example 3). Conditions: spray, 40° C. daylight / 30° C. dark, 4 days, ascorbyl palmitate 600 ppm, thiophanate-methyl 467 ppm, boscalid 333 ppm, cyflufenamid 17 ppm + triflumizole 75 ppm.
The test system of experiment [1] is Cucumber (breed: Sagamihanjiro). The experiment in a line: Relief effects of salt injury on cucumber (Test Example 8). To be noted: spray, 0.1% sodium chloride irrigation from 3 days, above ground raw weight at 20 days, ascorbyl palmitate 600 ppm, imidacloprid 50 ppm, pymetrozine 100 ppm, cyenopyrafen 150 ppm, pyraclostrobin 50 ppm, normal irrigation = 100.
Procedure: Cucumber (breed: Sagamihanjiro, 2 replications) hydroponically grown up to the 1.5 leaf stage in a greenhouse was prepared.
A water dispersible granule of 30% ascorbyl palmitate and a commercially available product containing the substance (B) described in Table 14 were diluted with tap water into a concentration described in Table 14, and the diluted solution was sprayed over the nursery plats in a sufficient amount. After air dried, they were cultivated in a greenhouse with normal irrigation. Irrigation was changed to 0.1% aqueous sodium chloride solution at the elapsed time of 3 days after the spraying, and cultivated. The raw weight of an above ground part was measured at the elapsed time of 20 days after the spraying. From this, injury relief percentages were computed by the following formula.

Consider 7 molecules from patent US9345243B2, “Chemicals composition for reducing stress on plant” (Nippon Soda Co., Ltd., priority 2012, dated 2016).

As to `O=C(Nc1ccccc1-c1ccc(Cl)cc1)c1cccnc1Cl` [Boscalid], in the experiment with Tomato (breed: Momotaro), the “relief percents of injury (%)” value is 40%.
For the molecule `O=[N+]([O-])NC1=NCCN1Cc1ccc(Cl)nc1` [Imidacloprid], the “relief percents of injury (%)” value in experiment [1] came to 33%.
`CC1=NNC(=O)N(/N=C/c2cccnc2)C1` [Pymetrozine]: the “relief percents of injury (%)” value in experiment [1] is 53%.
For `COC(=O)N(OC)c1ccccc1COc1ccn(-c2ccc(Cl)cc2)n1` [Pyraclostrobin], the “relief percents of injury (%)” value in experiment [1] is 77%.
Consider `COC(=O)NC(=S)Nc1ccccc1NC(=S)NC(=O)OC` [Thiophanate-methyl], for which, in the experiment on Tomato (breed: Momotaro), the “relief percents of injury (%)” value came out at 40%.
In the case of `CCCCCCCCCCCCCCCC(=O)OC[C@H](O)[C@H]1OC(=O)C(O)=C1O` [ascorbyl palmitate], the “relief percents of injury (%)” value with Tomato (breed: Momotaro) is 40%; in experiment [1], 53%.
Turning to `Cc1nn(C)c(/C(OC(=O)C(C)(C)C)=C(\C#N)c2ccc(C(C)(C)C)cc2)c1C` [cyenopyrafen], the “relief percents of injury (%)” value in experiment [1] amounted to 51%.
